Measured values published in patent publication US20230278972A1, “SUBSTITUTED HALOALKYL SULFONANILIDE HERBICIDES” (FMC Corporation, priority 2020, published 2023).

Legend:
Format in all cases: in vivo
[1] = tested on: rice (Oryza sativa); experiment: Test B1 flooded paddy test, rice; conditions: 250 g ai/ha, Flood, applied to paddy water, 2-leaf stage, visually evaluated after 10 to 14 days
Text: (§1) A dash (-) response means no test result.

[2] = tested on: Oat, Wild (wild oat, Avena fatua); experiment: Test A1 postemergence, Oat, Wild; conditions: for Plant response rating, Oat, Wild: Postemergence
In short: (§2)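 Herbicidal response was scored on plants treated either preemergence, by directed spray onto soil of a loam–sand blend after sowing, or postemergence on potted plants at the one- to two-leaf stage, 2–10 cm high. Test chemicals were carried in a non-phytotoxic solvent mix with surfactant.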

[3] = tested on: blackgrass (Alopecurus myosuroides); experiment: Test A1 preemergence, blackgrass
In short: (§3)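 Pre: seeds in loam/sand blend, directed soil spray. Post: potted plants, same soil, 2–10 cm, 1–2 leaf stage. Chemicals in non-phytotoxic solvent + surfactant for both.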

[4] = tested on: Pigweed, Palmer (palmer amaranth, palmer pigweed, Amaranthus palmeri); experiment: Test A1 postemergence, Pigweed, Palmer; conditions: for Plant response rating, Pigweed, Palmer: Postemergence
In short: as §2

[5] = tested on: galium (catchweed bedstraw, Galium aparine); experiment: Test A1 postemergence, galium; conditions: for Plant response rating, Galium: Postemergence
In short: as §3

[6] = tested on: barnyardgrass (Echinochloa crus-galli); experiment: Test B1 flooded paddy test, barnyardgrass; conditions: 250 g ai/ha, Flood, applied to paddy water, 2-leaf stage, visually evaluated after 10 to 14 days
Text: as §1

[7] = tested on: Foxtail, Giant (giant foxtail, Setaria faberi); experiment: Test A1 preemergence, Foxtail, Giant
In short: as §3

[8] = tested on: goosegrass (Eleusine indica); experiment: Test A1 preemergence, goosegrass
In short: as §3

[9] = tested on: kochia (Bassia scoparia); experiment: Test A1 postemergence, kochia; conditions: for Plant response rating, Kochia: Postemergence
In short: as §3

[10] = 31 g ai/ha, 0 to 100 scale (0 no effect, 100 complete control), 10 days
[11] = 31 g ai/ha, 0 to 100 scale (0 no effect, 100 complete control)
[12] = 125 g ai/ha, 0 to 100 scale, 0 no effect, 100 complete control
[13] = 31 g ai/ha, postemergence, 0 to 100 scale (0 no effect, 100 complete control)

Compound | Plant response rating, Rice (0 to 100 scale, 0 is no effect, 100 is complete control) [1] | Plant response rating, Oat, Wild [2, 10] | Plant response rating, Oat, Wild ([2]; 125 g ai/ha, 0 to 100 scale) | Plant response rating, Blackgrass [3, 11] | Plant response rating, Blackgrass [3, 12] | Plant response rating, Pigweed, Palmer [4, 10] | Plant response rating, Pigweed, Palmer ([4]; 125 g ai/ha, 0 to 100 scale) | Plant response rating, Galium [5, 10] | Plant response rating, Galium ([5]; 125 g ai/ha, 0 to 100 scale) | Plant response rating, Barnyardgrass (0 to 100 scale, 0 is no effect, 100 is complete control) [6] | Plant response rating, Foxtail, Giant [7, 11] | Plant response rating, Foxtail, Giant [7, 12] | Plant response rating, Goosegrass [8, 11] | Plant response rating, Goosegrass [8, 12] | Plant response rating, Kochia [9, 10] | Plant response rating, Kochia ([9]; 125 g ai/ha, 0 to 100 scale) | Oat, Wild plant response rating [2, 13] | Pigweed, Palmer plant response rating [4, 13] | Galium plant response rating [5, 13] | Kochia plant response rating [9, 13]
Cc1c(C(=O)N(C)C)cc(NS(=O)(=O)C(F)(F)F)c(Cl)c1F [Compound 320] | 0 | 0 | 0 | 0 | 0 | 40 | 80 | 70 | 90 | 0 | 10 | 100 | 80 | 100 | 30 | 70 | – | – | – | –
Cc1c(C(=O)N2CCC(C)CC2)cc(N(COC(=O)C(C)(C)C)S(=O)(=O)C(F)(F)F)c(C)c1C [Compound 369] | 20 | – | 0 | 0 | 0 | – | 40 | – | 80 | 90 | 0 | 20 | 0 | 50 | – | 50 | 0 | 0 | 60 | 0
Cc1cc(C)c(N(C(=O)OC(C)C)S(=O)(=O)C(F)(F)F)cc1C1=NOC2CCCC12 (stereo not shown) [Compound 295] | 0 | 0 | 0 | 0 | 0 | 0 | 30 | 50 | 60 | 95 | 0 | 40 | 80 | 90 | 0 | 30 | – | – | – | –
CCOC1CC(c2cc(N(COC(=O)C(C)(C)C)S(=O)(=O)C(F)(F)F)c(C)cc2C)=NO1 (stereo not shown) [Compound 339] | 20 | 0 | 0 | 0 | 0 | 0 | 20 | 30 | 50 | 95 | 0 | 20 | 0 | 90 | 30 | 70 | – | – | – | –
CCOC(=O)N(c1cc(C(=O)N2CCC(C)CC2)c(C)cc1C)S(=O)(=O)C(F)(F)F [Compound 354] | 15 | 0 | 10 | 0 | 0 | 0 | 10 | 40 | 80 | 90 | 80 | 100 | 70 | 100 | 40 | 50 | – | – | – | –
Cc1c(NS(=O)(=O)C(F)(F)F)cc(C(=O)N(C)C)c(C)c1Cl [Compound 287] | 0 | 0 | 0 | 0 | 30 | 0 | 40 | 0 | 0 | 0 | 0 | 30 | 70 | 90 | 0 | 10 | – | – | – | –
Cc1c(NS(=O)(=O)C(F)(F)F)cc(C(=O)N2CCC(Cl)CC2)c(C)c1C [Compound 356] | 0 | 0 | 10 | 0 | 10 | 0 | 10 | 70 | 100 | 45 | 90 | 100 | 90 | 90 | 10 | 50 | – | – | – | –
